Measured values reported in patent publication US20180207228A1, “PEPTIDE COMBINATIONS AND USES THEREOF FOR TREATING GRASS ALLERGY” (ALK-Abelló A/S, priority 2015, published 2018).
Where no end group is shown, it is not given here.

How the values were obtained:
Type in all cases: cell-based, human
[1] = test system: allergen specific T cells; assay: T cell proliferation assay (72 h) on donor derived T cell lines (TCL02/TCL03); details: for Proliferation % donor coverage (TCL-02 DK1): T cell lines TCL-02 DK1, 30 donors, hit criteria SI>=2, CPM>=1000; for Proliferation strength (TCL-02 DK1): T cell lines TCL-02 DK1, strength of response (average relative magnitude)
Outline: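 CD8-depleted PBMCs from grass-allergic donors stimulated with natural grass allergen mix (nPhl p 1 0.5 μg/ml) to raise T cell lines; restimulated with irradiated APCs, allergens or PHA-P (0.5 μg/ml) plus rIL-2. Proliferation to overlapping 20-mer and selected 15-mer grass peptides tested with TCL02 (day 24) or TCL03 (day 34).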

[2] = test system: release of IL-5 upon T cell activation; assay: Fluorospot assay, IL-5 release (DK1-TCL01, US1-TCL01); details: head prints TCL-02 DK1; text: 25 TCL-01 DK1 lines
Outline: (§1)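 Grass-allergic donors' CD8-depleted PBMCs were expanded 14 days with natural grass allergens plus IL-2 to give TCL01 lines. These were incubated 20 h at 37° C with single peptides or peptide mixes at 2 μg/ml, and spot-forming cells were counted. Hit: SI≥2, p≤0.05, Poisson ≤0.05, ≥20 SFC/10^6 cells.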

[3] = test system: release of IFN-γ upon T cell activation; assay: Fluorospot assay, IFN-γ release (DK1-TCL01, US1-TCL01); details: head prints TCL-02 DK1; 17 TCL-01 DK1 lines
Outline: as §1

Row | Substance | Proliferation % donor coverage (TCL-02 DK1) [1] [%] | Proliferation strength (TCL-02 DK1) [1] | IL-5-Fluorospotr % donor coverage (TCL-02 DK1) [2] [%] | IFN-gamma % donor coverage (TCL-02 DK1) [3] [%]
1 | GSNEKHLAVLVKYEGDTMAE-OH [compound 31] | 10.00 | 1.40 | 0.00 | 0.00
2 | HGSEEWEPLTKKGNVWEVKS-OH [compound 37] | 26.67 | 3.20 | 4.00 | 0.00
3 | IKYTRPGDSLAEVELRQHGS-OH [compound 42] | 16.67 | 0.80 | 0.00 | 0.00
4 | IPKVPPGPNITATYGDKWLD-OH [compound 14] | 3.33 | 0.40 | 0.00 | 0.00
5 | ITATYGDKWLDAKSTWYGKP-OH [compound 16] | 10.00 | 0.70 | 0.00 | 4.00
6 | KDKWIELKESWGAIWRIDTP-OH [compound 10] | 60.00 | 9.80 | 24.00 | 4.00
7 | KEDFLGSLVKEIPPRLLYAK-OH [compound 45] | 20.00 | 4.00 | 4.00 | 0.00
8 | KPAAAATATATSAVGAATGA-OH [compound 87] | 10.00 | 0.70 | 0.00 | 0.00
9 | KPPFSGMTGSGNTPI-OH [compound 122] | 10.34 | 0.60 | 4.17 | 0.00
10 | KPPFSGMTGSGNTPIFKSGR-OH [compound 19] | 16.67 | 1.10 | 0.00 | 0.00
11 | KPTGAGPKDNGGASGYKDVD-OH [compound 17] | 23.33 | 2.80 | 8.00 | 4.00
12 | KSSKPLVGPFNFRFMSKGGM-OH [compound 39] | 13.33 | 1.10 | 12.00 | 4.00
13 | KVPPGPNITATYGDKWLDAK-OH [compound 15] | 3.33 | 0.50 | 0.00 | 0.00
14 | LSYRSLQPETFAVVDLNKMR-OH [compound 53] | 10.00 | 1.20 | 0.00 | 4.00
15 | LVKYVNGDGDVVAVDIKEKG-OH [compound 9] | 26.67 | 1.60 | 20.00 | 8.00
16 | PFDGMTASGNEPIFKDGLGS-OH [compound 94] | 16.67 | 2.90 | 4.00 | 4.00
17 | PMKSSWGAIWRIDPKKPLKG-OH [compound 108] | 33.33 | 4.10 | 4.00 | 0.00
18 | PYVSKNPRQAYANYRDIDLG-OH [compound 56] | 20.00 | 3.10 | 0.00 | 4.00
19 | RASYEIKSKEPVESSGEPVL-OH [compound 96] | 6.67 | 0.60 | 0.00 | 0.00
20 | RFLTEKGMKNVFDDVVPEKY-OH [compound 34] | 6.67 | 0.60 | 4.00 | 0.00

Row | Substance | Proliferation % donor coverage (TCL-02 DK1) [1] [%] | Proliferation strength (TCL-02 DK1) [1] | IL-5-Fluorospotr % donor coverage (TCL-02 DK1) [2] [%] | IFN-gamma % donor coverage (TCL-02 DK1) [3] [%]
21 | RGAAPDDHGGASGYKDVDKP-OH [compound 92] | 3.33 | 0.60 | 0.00 | 0.00
22 | RIIAGTLEVHAVKPAAEEVK-OH [compound 80] | 30.00 | 4.40 | 0.00 | 0.00
23 | RNEVVNDVSTYASGKVWGQK-OH [compound 57] | 16.67 | 2.00 | 4.00 | 4.00
24 | RNVFDEVIPTAFKIGKTYTP-OH [compound 44] | 20.00 | 1.40 | 0.00 | 0.00
25 | SKYPSGTKITFHIEKGSNDH-OH [compound 103] | 36.67 | 6.50 | 8.00 | 4.00
26 | SMGDDHFWAVRGGGGESFGI-OH [compound 49] | 40.00 | 5.60 | 20.00 | 12.00
27 | TALKKAITAMSEAQKAAKPA-OH [compound 85] | 20.00 | 2.80 | 4.00 | 0.00
28 | TATYGSKWLEARATFYGSNP-OH [compound 90] | 26.67 | 3.50 | 12.00 | 4.00
29 | TDDNEEPIAPYHFDLSGHAF-OH [compound 4] | 40.00 | 6.40 | 28.00 | 4.00
30 | TKGKVDPTDYFRNEQSIPPL-OH [compound 60] | 13.33 | 2.60 | 0.00 | 0.00
31 | TKKGNVWEVKSSKPLVGPFN-OH [compound 38] | 50.00 | 6.60 | 24.00 | 4.00
32 | TPDKLTGPFTVRYTTEGGTK-OH [compound 26] | 13.33 | 2.00 | 24.00 | 4.00
33 | TPFPHRKGVLFNIQYVNYWF-OH [compound 50] | 43.33 | 6.70 | 28.00 | 8.00
34 | TSAVGAATGAATAATGGYKV-OH [compound 88] | 0.00 | 0.00 | 0.00 | 0.00
35 | TSKLDAAYKLAYKTAEGATP-OH [compound 65] | 30.00 | 5.70 | 4.00 | 4.00
36 | VFDDVVPEKYTIGATYAPEE-OH [compound 35] | 13.33 | 0.70 | 0.00 | 0.00
37 | VKYEGDTMAEVELREHGSDE-OH [compound 32] | 6.67 | 0.20 | 0.00 | 0.00
38 | VPKVTFTVEKGSNEKHLAVL-OH [compound 30] | 3.33 | 0.40 | 0.00 | 0.00
39 | VRYTTEGGTKTEAEDVIPEG-OH [compound 12] | 23.33 | 7.00 | 8.00 | 8.00
40 | VVAVDIKEKGKDKWIELKES-OH [compound 25] | 20.00 | 1.10 | 4.00 | 8.00
